Measured values published in ChEMBL document CHEMBL5303765, “Data for DCP probe BAY-7081” (2023).

Columns and labels:
[1] = molecular target: AP2-associated protein kinase 1 (Homo sapiens) (UniProt Q2M2I8); assay: AAK1 SGC Tm panel (DSF); settings: for ΔTm: Compound concentration 10.0 uM
[2] = molecular target: Cyclin-dependent kinase-like 1 (Homo sapiens) (UniProt Q00532); assay: CDKL1 SGC Tm panel (DSF); settings: for ΔTm: Compound concentration 10.0 uM
[3] = molecular target: Fibroblast growth factor receptor 1 (Homo sapiens) (UniProt P11362); assay: FGFR1 SGC Tm panel (DSF); settings: for ΔTm: Compound concentration 10.0 uM
[4] = molecular target: T1, Mitogen-activated protein kinase 15 (Homo sapiens) (UniProt Q8TD08); assay: MAPK15 SGC Tm panel (DSF); settings: for ΔTm: Compound concentration 10.0 uM
T1 sequence (whole entry): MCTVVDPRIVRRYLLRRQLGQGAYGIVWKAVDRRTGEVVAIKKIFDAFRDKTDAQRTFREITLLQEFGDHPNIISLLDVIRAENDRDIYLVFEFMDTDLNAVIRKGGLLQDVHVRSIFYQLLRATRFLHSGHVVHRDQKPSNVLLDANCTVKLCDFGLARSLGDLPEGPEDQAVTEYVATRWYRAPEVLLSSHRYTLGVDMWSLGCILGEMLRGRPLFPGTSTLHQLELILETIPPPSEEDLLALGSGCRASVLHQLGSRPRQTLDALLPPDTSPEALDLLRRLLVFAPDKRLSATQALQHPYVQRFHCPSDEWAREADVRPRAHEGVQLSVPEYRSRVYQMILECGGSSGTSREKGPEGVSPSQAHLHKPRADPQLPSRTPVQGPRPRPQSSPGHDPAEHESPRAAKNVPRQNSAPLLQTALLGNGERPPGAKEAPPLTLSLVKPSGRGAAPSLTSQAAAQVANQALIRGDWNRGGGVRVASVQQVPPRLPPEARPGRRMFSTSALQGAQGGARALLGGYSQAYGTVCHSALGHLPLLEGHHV

[5] = molecular target: Mitogen-activated protein kinase 8 (Homo sapiens) (UniProt P45983); assay: MAPK8 SGC Tm panel (DSF); settings: for ΔTm: Compound concentration 10.0 uM
[6] = molecular target: MAP kinase-activated protein kinase 2 (Homo sapiens) (UniProt P49137); assay: MAPKAPK2 SGC Tm panel (DSF); settings: for ΔTm: Compound concentration 10.0 uM
[7] = molecular target: Maternal embryonic leucine zipper kinase (Homo sapiens) (UniProt Q14680); assay: MELK SGC Tm panel (DSF); settings: for ΔTm: Compound concentration 10.0 uM
[8] = molecular target: Serine/threonine-protein kinase 10 (Homo sapiens) (UniProt O94804); assay: STK10 SGC Tm panel (DSF); settings: for ΔTm: Compound concentration 10.0 uM
[9] = molecular target: T2, Dual specificity protein kinase TTK (Homo sapiens) (UniProt P33981); assay: TTK SGC Tm panel (DSF); settings: for ΔTm: Compound concentration 10.0 uM
T2 sequence (whole entry): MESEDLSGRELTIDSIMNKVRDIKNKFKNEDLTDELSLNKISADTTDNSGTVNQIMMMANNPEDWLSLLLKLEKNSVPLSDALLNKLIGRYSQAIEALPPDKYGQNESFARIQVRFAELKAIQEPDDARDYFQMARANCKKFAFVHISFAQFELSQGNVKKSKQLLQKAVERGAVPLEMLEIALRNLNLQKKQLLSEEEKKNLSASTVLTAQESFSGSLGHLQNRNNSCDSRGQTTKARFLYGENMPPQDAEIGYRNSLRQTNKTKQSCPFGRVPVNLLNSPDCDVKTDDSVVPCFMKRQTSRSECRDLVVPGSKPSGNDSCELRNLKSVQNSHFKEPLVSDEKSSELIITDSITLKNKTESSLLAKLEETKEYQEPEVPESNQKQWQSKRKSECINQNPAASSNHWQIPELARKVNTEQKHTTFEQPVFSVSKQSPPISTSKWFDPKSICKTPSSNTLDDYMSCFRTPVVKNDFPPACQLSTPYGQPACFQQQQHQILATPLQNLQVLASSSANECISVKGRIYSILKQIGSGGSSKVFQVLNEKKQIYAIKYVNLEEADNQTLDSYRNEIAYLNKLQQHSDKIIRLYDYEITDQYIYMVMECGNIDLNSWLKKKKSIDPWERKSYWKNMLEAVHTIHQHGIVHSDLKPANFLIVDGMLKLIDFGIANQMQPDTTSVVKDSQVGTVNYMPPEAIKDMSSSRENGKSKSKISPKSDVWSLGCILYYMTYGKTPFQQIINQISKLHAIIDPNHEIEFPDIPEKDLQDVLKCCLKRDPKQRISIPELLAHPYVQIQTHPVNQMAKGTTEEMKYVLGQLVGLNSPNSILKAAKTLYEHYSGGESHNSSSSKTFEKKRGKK

[10] = molecular target: T3, Alpha-2A adrenergic receptor (Homo sapiens) (UniProt P08913); settings: Compound concentration 10.0 uM
T3 sequence (whole entry): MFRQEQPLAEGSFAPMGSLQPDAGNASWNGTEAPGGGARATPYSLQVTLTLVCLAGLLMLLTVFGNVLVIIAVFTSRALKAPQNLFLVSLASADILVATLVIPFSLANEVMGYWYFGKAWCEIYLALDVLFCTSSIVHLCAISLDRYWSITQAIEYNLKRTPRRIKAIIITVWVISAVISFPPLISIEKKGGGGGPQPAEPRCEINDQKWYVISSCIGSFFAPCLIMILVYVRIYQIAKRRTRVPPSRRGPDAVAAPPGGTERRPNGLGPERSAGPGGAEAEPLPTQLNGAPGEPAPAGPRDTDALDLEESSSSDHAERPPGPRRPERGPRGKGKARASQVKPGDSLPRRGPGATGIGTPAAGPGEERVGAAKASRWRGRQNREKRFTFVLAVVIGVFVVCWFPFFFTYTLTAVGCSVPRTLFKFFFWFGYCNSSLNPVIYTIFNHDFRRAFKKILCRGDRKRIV

[11] = molecular target: Muscarinic acetylcholine receptor M3 (Homo sapiens) (UniProt P20309); settings: Compound concentration 10.0 uM
Sequence of Muscarinic acetylcholine receptor M3 (Homo sapiens) (P20309 whole entry, looked up): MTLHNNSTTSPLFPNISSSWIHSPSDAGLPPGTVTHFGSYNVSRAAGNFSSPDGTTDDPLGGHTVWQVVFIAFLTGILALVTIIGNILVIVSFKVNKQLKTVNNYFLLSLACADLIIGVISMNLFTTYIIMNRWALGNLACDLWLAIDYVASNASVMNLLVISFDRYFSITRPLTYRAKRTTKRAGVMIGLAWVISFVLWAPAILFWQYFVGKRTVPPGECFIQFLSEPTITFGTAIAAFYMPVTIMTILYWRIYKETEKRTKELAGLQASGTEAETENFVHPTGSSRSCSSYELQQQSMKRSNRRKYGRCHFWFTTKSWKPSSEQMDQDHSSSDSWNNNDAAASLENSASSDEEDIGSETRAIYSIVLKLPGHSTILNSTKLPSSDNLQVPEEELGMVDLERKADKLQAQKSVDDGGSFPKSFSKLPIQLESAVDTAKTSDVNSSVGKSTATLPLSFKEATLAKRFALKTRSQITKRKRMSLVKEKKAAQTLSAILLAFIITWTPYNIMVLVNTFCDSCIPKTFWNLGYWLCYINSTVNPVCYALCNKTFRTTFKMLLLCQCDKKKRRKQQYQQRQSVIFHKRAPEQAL

Sequence of Fibroblast growth factor receptor 1 (Homo sapiens) (P11362 22-822 limits assumed): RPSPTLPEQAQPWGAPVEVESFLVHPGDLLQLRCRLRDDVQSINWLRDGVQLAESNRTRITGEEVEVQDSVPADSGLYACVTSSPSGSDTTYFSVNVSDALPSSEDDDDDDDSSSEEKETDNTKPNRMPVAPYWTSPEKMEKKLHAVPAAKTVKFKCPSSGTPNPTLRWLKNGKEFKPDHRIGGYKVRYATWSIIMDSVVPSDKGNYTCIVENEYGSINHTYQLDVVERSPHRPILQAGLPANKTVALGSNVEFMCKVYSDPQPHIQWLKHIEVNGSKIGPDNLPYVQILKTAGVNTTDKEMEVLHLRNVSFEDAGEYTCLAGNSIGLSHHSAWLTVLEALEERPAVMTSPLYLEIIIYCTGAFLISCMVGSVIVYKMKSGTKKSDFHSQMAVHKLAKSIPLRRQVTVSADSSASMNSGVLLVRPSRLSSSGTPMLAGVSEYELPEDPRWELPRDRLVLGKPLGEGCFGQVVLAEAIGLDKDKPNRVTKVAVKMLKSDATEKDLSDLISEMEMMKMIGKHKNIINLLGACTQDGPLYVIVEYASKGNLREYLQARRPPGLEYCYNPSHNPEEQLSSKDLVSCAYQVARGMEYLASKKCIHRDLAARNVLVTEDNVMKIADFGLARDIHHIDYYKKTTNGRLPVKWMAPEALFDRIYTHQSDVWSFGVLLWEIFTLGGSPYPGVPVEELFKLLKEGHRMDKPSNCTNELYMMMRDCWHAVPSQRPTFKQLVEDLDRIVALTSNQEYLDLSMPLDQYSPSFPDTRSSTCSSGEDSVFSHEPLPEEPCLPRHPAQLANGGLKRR
Sequence of Mitogen-activated protein kinase 8 (Homo sapiens) (P45983 whole entry): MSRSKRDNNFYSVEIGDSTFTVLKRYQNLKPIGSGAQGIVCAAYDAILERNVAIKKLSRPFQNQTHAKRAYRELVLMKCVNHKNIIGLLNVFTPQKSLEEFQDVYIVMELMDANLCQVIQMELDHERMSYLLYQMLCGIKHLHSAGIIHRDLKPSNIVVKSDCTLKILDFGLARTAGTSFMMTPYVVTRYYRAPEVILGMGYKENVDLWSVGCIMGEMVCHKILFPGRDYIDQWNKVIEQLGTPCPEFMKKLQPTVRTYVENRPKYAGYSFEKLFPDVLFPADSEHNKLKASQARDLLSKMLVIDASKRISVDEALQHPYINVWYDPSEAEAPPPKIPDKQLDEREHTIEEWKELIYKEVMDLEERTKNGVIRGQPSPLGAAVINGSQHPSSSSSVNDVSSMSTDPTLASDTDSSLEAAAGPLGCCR
Sequence of Serine/threonine-protein kinase 10 (Homo sapiens) (O94804 whole entry, looked up): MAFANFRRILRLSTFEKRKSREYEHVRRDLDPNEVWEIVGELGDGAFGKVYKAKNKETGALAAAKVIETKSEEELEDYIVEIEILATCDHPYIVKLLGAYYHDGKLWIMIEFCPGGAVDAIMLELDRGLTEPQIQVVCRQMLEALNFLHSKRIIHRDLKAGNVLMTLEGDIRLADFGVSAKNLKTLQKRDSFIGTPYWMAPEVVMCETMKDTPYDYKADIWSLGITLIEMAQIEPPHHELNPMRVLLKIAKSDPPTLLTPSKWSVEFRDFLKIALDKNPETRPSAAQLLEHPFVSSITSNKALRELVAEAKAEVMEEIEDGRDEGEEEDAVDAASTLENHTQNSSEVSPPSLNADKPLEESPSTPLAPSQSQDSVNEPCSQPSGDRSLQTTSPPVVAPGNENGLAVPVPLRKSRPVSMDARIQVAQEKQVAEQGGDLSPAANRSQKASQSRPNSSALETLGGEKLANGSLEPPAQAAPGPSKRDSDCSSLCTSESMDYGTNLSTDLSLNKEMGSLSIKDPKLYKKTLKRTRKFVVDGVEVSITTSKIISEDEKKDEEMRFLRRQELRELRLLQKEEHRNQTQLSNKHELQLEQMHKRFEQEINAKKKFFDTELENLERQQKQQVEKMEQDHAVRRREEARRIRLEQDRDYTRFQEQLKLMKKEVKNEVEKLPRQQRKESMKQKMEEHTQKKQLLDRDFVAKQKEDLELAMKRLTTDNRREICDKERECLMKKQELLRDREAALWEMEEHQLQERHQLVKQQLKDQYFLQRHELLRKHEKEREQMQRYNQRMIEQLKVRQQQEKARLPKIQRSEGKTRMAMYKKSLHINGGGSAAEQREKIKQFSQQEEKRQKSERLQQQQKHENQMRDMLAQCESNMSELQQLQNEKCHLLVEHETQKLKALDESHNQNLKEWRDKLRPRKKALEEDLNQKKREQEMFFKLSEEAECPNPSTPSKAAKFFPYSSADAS
Sequence of AP2-associated protein kinase 1 (Homo sapiens) (Q2M2I8 whole entry, looked up): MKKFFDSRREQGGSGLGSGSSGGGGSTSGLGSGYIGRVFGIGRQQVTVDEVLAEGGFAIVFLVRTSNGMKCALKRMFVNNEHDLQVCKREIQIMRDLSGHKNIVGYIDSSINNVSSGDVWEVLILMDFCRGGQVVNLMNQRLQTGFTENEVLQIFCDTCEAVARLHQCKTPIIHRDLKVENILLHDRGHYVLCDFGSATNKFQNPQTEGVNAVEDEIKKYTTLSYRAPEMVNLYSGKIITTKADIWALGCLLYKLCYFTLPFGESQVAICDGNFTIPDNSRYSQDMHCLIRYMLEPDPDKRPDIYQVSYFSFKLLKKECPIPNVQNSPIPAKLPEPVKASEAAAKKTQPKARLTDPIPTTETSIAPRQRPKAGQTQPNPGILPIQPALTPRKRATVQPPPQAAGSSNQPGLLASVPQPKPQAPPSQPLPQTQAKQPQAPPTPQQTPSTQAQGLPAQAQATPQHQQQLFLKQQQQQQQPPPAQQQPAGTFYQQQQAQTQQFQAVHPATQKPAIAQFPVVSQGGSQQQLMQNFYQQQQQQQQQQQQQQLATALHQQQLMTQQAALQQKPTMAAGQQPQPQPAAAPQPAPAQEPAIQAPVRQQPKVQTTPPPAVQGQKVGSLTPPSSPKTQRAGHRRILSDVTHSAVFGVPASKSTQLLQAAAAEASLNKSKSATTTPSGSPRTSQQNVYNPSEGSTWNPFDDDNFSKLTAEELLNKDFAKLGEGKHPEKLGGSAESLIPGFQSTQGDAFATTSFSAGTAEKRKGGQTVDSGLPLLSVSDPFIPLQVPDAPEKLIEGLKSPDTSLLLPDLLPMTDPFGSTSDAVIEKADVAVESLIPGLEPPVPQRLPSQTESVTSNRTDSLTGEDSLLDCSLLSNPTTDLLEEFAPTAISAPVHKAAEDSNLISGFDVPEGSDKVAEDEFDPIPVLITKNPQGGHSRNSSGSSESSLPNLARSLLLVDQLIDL
Sequence of MAP kinase-activated protein kinase 2 (Homo sapiens) (P49137 whole entry, looked up): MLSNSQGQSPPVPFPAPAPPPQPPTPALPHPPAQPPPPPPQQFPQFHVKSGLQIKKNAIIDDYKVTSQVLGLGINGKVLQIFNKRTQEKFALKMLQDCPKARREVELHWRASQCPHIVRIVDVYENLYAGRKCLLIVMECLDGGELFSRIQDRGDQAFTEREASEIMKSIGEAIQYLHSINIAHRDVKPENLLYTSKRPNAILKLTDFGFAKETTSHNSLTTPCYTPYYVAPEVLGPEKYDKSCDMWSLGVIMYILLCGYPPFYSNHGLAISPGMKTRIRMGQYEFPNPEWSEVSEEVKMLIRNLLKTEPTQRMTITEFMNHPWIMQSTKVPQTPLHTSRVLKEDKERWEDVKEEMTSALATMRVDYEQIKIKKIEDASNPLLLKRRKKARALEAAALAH
Sequence of Cyclin-dependent kinase-like 1 (Homo sapiens) (Q00532 whole entry): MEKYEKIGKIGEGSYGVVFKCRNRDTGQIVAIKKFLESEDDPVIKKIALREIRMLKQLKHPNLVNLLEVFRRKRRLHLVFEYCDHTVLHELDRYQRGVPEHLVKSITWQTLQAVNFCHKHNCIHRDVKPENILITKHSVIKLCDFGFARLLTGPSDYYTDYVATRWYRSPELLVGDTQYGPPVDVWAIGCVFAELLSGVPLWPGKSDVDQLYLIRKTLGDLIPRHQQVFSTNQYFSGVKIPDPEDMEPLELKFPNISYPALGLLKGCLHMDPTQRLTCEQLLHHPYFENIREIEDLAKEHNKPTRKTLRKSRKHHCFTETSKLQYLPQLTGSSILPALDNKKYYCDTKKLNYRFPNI

Row | SMILES | delta Tm Staurosporine positive control [1] | ΔTm [1] | delta Tm Staurosporine positive control [2] | ΔTm [2] | delta Tm Staurosporine positive control [3] | ΔTm [3] | delta Tm Staurosporine positive control [4] | ΔTm [4] | delta Tm Staurosporine positive control [5] | ΔTm [5] | delta Tm Staurosporine positive control [6] | ΔTm [6] | delta Tm Staurosporine positive control [7] | ΔTm [7] | delta Tm Staurosporine positive control [8] | ΔTm [8] | delta Tm Staurosporine positive control [9] | ΔTm [9] | inhibition [10] [%] | inhibition [11] [%]
1 | CCC[C@H]1CNCc2c1[nH]c(=O)c(C#N)c2N1CCC2(CC1)CC2 | 12.4 | -0.482 | 7.07 | -0.0258 | 5.57 | -0.133 | 16.4 | -0.258 | 7.45 | -0.298 | 3.96 | -0.289 | 14.2 | -0.201 | 22.2 | -2.2 | 7.9 | 0.222 | 5.64 | -1
2 | CCC[C@@H]1CNCc2c1[nH]c(=O)c(C#N)c2N1CCC2(CC1)CC2 | 12.4 | -0.478 | 7.07 | -0.229 | 5.57 | -0.198 | 16.4 | 0.0332 | 7.45 | -0.293 | 3.96 | -0.281 | 14.2 | 0.193 | 22.2 | -2.3 | 7.9 | 0.316 | 9.55 | 3.32
